Measurements as given in patent US11427549B2, “Pyrimidinyloxy benzo-fused compounds as herbicides” (FMC Corporation, priority 2017, dated 2022).

Legend:
[1] = tested on: foxtail, green (green foxtail, Setaria viridis); test: Test A postemergence, foxtail, green; format: in vivo; conditions: 0 to 100 scale (0 no effect, 100 complete control)
Source text: (§1) Seeds of plant species selected from barnyardgrass (Echinochloa crus-galli), kochia (Kochia scoparia), ragweed (common ragweed, Ambrosia elatior), ryegrass, Italian (Italian ryegrass, Lolium multiflorum), foxtail, giant (giant foxtail, Setaria faberii), foxtail, green (green foxtail, Setaria viridis) and pigweed (Amaranthus retroflexus) were planted into a blend of loam soil and sand and treated preemergence with a directed soil spray using test chemicals formulated in a non-phytotoxic solvent mixture which included a surfactant.
(§2) At the same time, plants selected from these weed species and also wheat (Triticum aestivum), corn (Zea mays), blackgrass (Alopecurus myosuroides), and galium (catchweed bedstraw, Galium aparine) were planted in pots containing the same blend of loam soil and sand and treated with postemergence applications of test chemicals formulated in the same manner. Plants ranged in height from 2 to 10 cm and were in the one- to two-leaf stage for the postemergence treatment. Treated plants and untreated controls were maintained in a greenhouse for approximately 10 days, after which time all treated plants were compared to untreated controls and visually evaluated for injury. […] A dash (-) response means no test result.

[2] = tested on: barnyardgrass (Echinochloa crus-galli); test: Test A postemergence, barnyardgrass; format: in vivo; conditions: 0 to 100 scale (0 no effect, 100 complete control)
Source text: as §1, §2

kochia (Kochia scoparia) [3] = test: Test A postemergence, kochia; format: in vivo; conditions: 0 to 100 scale (0 no effect, 100 complete control)
Source text: as §1, §2

kochia (Kochia scoparia) [4] = test: Test A preemergence, kochia; format: in vivo; conditions: 0 to 100 scale (0 no effect, 100 complete control)
Source text: as §1, §2

[5] = tested on: wheat (Triticum aestivum); test: Test A postemergence, wheat; format: in vivo; conditions: 0 to 100 scale (0 no effect, 100 complete control)
Source text: as §1, §2

[6] = tested on: ducksalad (Heteranthera limosa); test: Test B flooded paddy test, ducksalad; conditions: Flood, 250 g ai/ha, applied to paddy water, 2-leaf stage, visually evaluated after 13 to 15 days
[7] = tested on: ryegrass, Italian (Italian ryegrass, Lolium multiflorum); test: Test A postemergence, ryegrass, Italian; format: in vivo; conditions: 0 to 100 scale (0 no effect, 100 complete control)
Source text: as §1, §2

[8] = tested on: blackgrass (Alopecurus myosuroides); test: Test A postemergence, blackgrass; format: in vivo; conditions: 0 to 100 scale (0 no effect, 100 complete control)
Source text: as §1, §2

[9] = tested on: ragweed (common ragweed, Ambrosia elatior); test: Test A preemergence, ragweed; format: in vivo; conditions: 0 to 100 scale (0 no effect, 100 complete control)
Source text: as §1, §2

[10] = tested on: ragweed (common ragweed, Ambrosia elatior); test: Test A postemergence, ragweed; format: in vivo; conditions: 0 to 100 scale (0 no effect, 100 complete control)
Source text: as §1, §2

[11] = tested on: pigweed (Amaranthus retroflexus); test: Test A postemergence, pigweed; format: in vivo; conditions: 0 to 100 scale (0 no effect, 100 complete control)
Source text: as §1, §2

corn (Zea mays) = test: Test A postemergence, corn; format: in vivo; conditions: 0 to 100 scale (0 no effect, 100 complete control)
Source text: as §1, §2

[12] = tested on: ryegrass, Italian (Italian ryegrass, Lolium multiflorum); test: Test A preemergence, ryegrass, Italian; format: in vivo; conditions: 0 to 100 scale (0 no effect, 100 complete control)
Source text: as §1, §2

[13] = tested on: galium (catchweed bedstraw, Galium aparine); test: Test A postemergence, galium; format: in vivo; conditions: 0 to 100 scale (0 no effect, 100 complete control)
Source text: as §1, §2

[14] = tested on: barnyardgrass (Echinochloa crus-galli); test: Test A preemergence, barnyardgrass; format: in vivo; conditions: 0 to 100 scale (0 no effect, 100 complete control)
Source text: as §1, §2

[15] = tested on: foxtail, green (green foxtail, Setaria viridis); test: Test A preemergence, foxtail, green; format: in vivo; conditions: 0 to 100 scale (0 no effect, 100 complete control)
Source text: as §1, §2

[16] = tested on: pigweed (Amaranthus retroflexus); test: Test A preemergence, pigweed; format: in vivo; conditions: 0 to 100 scale (0 no effect, 100 complete control)
Source text: as §1, §2

rice (Oryza sativa) = test: Test B flooded paddy test, rice; conditions: Flood, 250 g ai/ha, applied to paddy water, 2-leaf stage, visually evaluated after 13 to 15 days
[17] = tested on: barnyardgrass (Echinochloa crus-galli); test: Test B flooded paddy test, barnyardgrass; conditions: Flood, 250 g ai/ha, applied to paddy water, 2-leaf stage, visually evaluated after 13 to 15 days
[18] = tested on: foxtail, giant (giant foxtail, Setaria faberii); test: Test A postemergence, foxtail, giant; format: in vivo; conditions: 0 to 100 scale (0 no effect, 100 complete control)
Source text: as §1, §2

[19] = tested on: foxtail, giant (giant foxtail, Setaria faberii); test: Test A preemergence, foxtail, giant; format: in vivo; conditions: 0 to 100 scale (0 no effect, 100 complete control)
Source text: as §1, §2

| Molecule | Plant response rating, Foxtail, Green ([1]; 125 g ai/ha) | Plant response rating, Barnyardgrass ([2]; 125 g ai/ha) | Plant response rating, Kochia (kochia (Kochia scoparia) [3]; 125 g ai/ha) | Plant response rating, Kochia (kochia (Kochia scoparia) [4]; 125 g ai/ha) | Plant response rating, Wheat ([5]; 125 g ai/ha) | Plant response rating, Ducksalad (0 to 100 scale, 0 is no effect, 100 is complete control) [6] | Plant response rating, Ryegrass, Italian ([7]; 125 g ai/ha) | Plant response rating, Blackgrass ([8]; 125 g ai/ha) | Plant response rating, Ragweed ([9]; 125 g ai/ha) | Plant response rating, Ragweed ([10]; 125 g ai/ha) | Plant response rating, Pigweed ([11]; 125 g ai/ha) | Plant response rating, Corn (corn (Zea mays); 125 g ai/ha) | Plant response rating, Ryegrass, Italian ([12]; 125 g ai/ha) | Plant response rating, Galium ([13]; 125 g ai/ha) | Plant response rating, Barnyardgrass ([14]; 125 g ai/ha) | Plant response rating, Foxtail, Green ([15]; 125 g ai/ha) | Plant response rating, Pigweed ([16]; 125 g ai/ha) | Plant response rating, Rice (0 to 100 scale, 0 is no effect, 100 is complete control) (rice (Oryza sativa)) | Plant response rating, Barnyardgrass (0 to 100 scale, 0 is no effect, 100 is complete control) [17] | Plant response rating, Barnyardgrass ([2]; 31 g ai/ha) | further results |
| --- | --- | --- | --- | --- | --- | --- | --- | --- | --- | --- | --- | --- | --- | --- | --- | --- | --- | --- | --- | --- | --- |
| 5-Chloro-2-[[1-oxido-3-(4,4,4-trifluorobutyl)-3H-2,1-benzoxathiol-4-yl]oxy]pyrimidine [Compound 15] | 20 | 30 | 80 | 20 | 10 | 0 | 20 | 30 | 0 | 30 | 70 | 20 | 0 | 80 | 30 | 50 | 70 | 0 | 0 |  | Plant response rating, Foxtail, Green ([1]; 500 g ai/ha): 80; Plant response rating, Barnyardgrass ([2]; 500 g ai/ha): 60; Plant response rating, Kochia (kochia (Kochia scoparia) [3]; 500 g ai/ha): 90; Plant response rating, Kochia (kochia (Kochia scoparia) [4]; 500 g ai/ha): 80; Plant response rating, Wheat ([5]; 500 g ai/ha): 30; Plant response rating, Ryegrass, Italian ([7]; 500 g ai/ha): 90; Plant response rating, Blackgrass ([8]; 500 g ai/ha): 90; Plant response rating, Ragweed ([9]; 500 g ai/ha): 20; Plant response rating, Ragweed ([10]; 500 g ai/ha): 60; Plant response rating, Pigweed ([11]; 500 g ai/ha): 90; Plant response rating, Corn (corn (Zea mays); 500 g ai/ha): 40; Plant response rating, Ryegrass, Italian ([12]; 500 g ai/ha): 30; Plant response rating, Galium ([13]; 500 g ai/ha): 80; Plant response rating, Barnyardgrass ([14]; 500 g ai/ha): 70; Plant response rating, Foxtail, Green ([15]; 500 g ai/ha): 100; Plant response rating, Pigweed ([16]; 500 g ai/ha): 100 |
| O=C1CC(CCCC(F)(F)F)c2c(Oc3ncc(Cl)cn3)cccc21 (stereo not shown) [Compound 6, 4-[(5-Chloropyrimidin-2-pyrimidinyl)oxy]-2,3-dihydro-3-(4,4,4-trifluorobutyl)-1H-inden-1-one] | 40 | 40 | 60 | 80 | 10 | 100 | 30 | 30 | 0 | 0 | 100 | 20 | 10 | 90 | 90 | 100 | 100 | 20 | 40 | 10 | Plant response rating, Foxtail, Green ([1]; 31 g ai/ha): 10; Plant response rating, Kochia (kochia (Kochia scoparia) [3]; 31 g ai/ha): 10; Plant response rating, Kochia (kochia (Kochia scoparia) [4]; 31 g ai/ha): 0; Plant response rating, Wheat ([5]; 31 g ai/ha): 0; Plant response rating, Ryegrass, Italian ([7]; 31 g ai/ha): 0; Plant response rating, Blackgrass ([8]; 31 g ai/ha): 10; Plant response rating, Ragweed ([9]; 31 g ai/ha): 0; Plant response rating, Ragweed ([10]; 31 g ai/ha): 0; Plant response rating, Pigweed ([11]; 31 g ai/ha): 90; Plant response rating, Corn (corn (Zea mays); 31 g ai/ha): 0; Plant response rating, Ryegrass, Italian ([12]; 31 g ai/ha): 0; Plant response rating, Galium ([13]; 31 g ai/ha): 60; Plant response rating, Barnyardgrass ([14]; 31 g ai/ha): 0; Plant response rating, Foxtail, Green ([15]; 31 g ai/ha): 20; Plant response rating, Pigweed ([16]; 31 g ai/ha): 0 |
| O=C1OCC(CCCC(F)(F)F)c2c(Oc3ncc(Cl)cn3)cccc21 (stereo not shown) [Compound 16, 5-[(5-Chloro-2-pyrimidinyl)oxy]-3,4-dihydro-4-(4,4,4,-trifluorobutyl)-1H-2benzopyran-1-one] |  | 80 | 100 | 100 | 50 | 100 | 80 | 90 |  | 50 | 100 | 40 | 70 | 100 | 100 |  | 100 | 15 | 75 | 30 | Plant response rating, Foxtail, Giant ([18]; 31 g ai/ha): 30; Plant response rating, Foxtail, Giant ([18]; 125 g ai/ha): 90; Plant response rating, Kochia (kochia (Kochia scoparia) [3]; 31 g ai/ha): 80; Plant response rating, Kochia (kochia (Kochia scoparia) [4]; 31 g ai/ha): 10; Plant response rating, Wheat ([5]; 31 g ai/ha): 50; Plant response rating, Ryegrass, Italian ([7]; 31 g ai/ha): 20; Plant response rating, Blackgrass ([8]; 31 g ai/ha): 80; Plant response rating, Ragweed ([10]; 31 g ai/ha): 10; Plant response rating, Pigweed ([11]; 31 g ai/ha): 80; Plant response rating, Corn (corn (Zea mays); 31 g ai/ha): 0; Plant response rating, Foxtail, Giant ([19]; 31 g ai/ha): 80; Plant response rating, Foxtail, Giant ([19]; 125 g ai/ha): 100; Plant response rating, Ryegrass, Italian ([12]; 31 g ai/ha): 10; Plant response rating, Galium ([13]; 31 g ai/ha): 90; Plant response rating, Barnyardgrass ([14]; 31 g ai/ha): 60; Plant response rating, Pigweed ([16]; 31 g ai/ha): 100 |
